Patent US20050175550A1, “Compositions for oral use” (priority 2000, published 2005)
Converted amounts (≈) assume the structure as drawn.

Assays:
Format in all cases: cell-based
[1] = test system: Fusobacterium nucleatum ATCC10953; assay: Antibacterial test, propagation by turbidity in broth (Example 1); details: medium containing 0.1 mM or 1.0 mM trifluoromethionine, FIG. 4
Description: (§1) 3 ml of GAM broth (Nissui Medical) containing 5 μg/ml of hemin and 1 μg/ml of menadione was separately incubated with one platinum loop each of subcultures of strains Porphyromonas gingivalis W83, ATCC33277 and M1217, and strain Fusobacterium nucleatum ATCC10953, followed by incubation at 37° C. under anaerobic conditions (10% CO2, 10% H2, 80% N2) overnight. The same fresh medium as above was inoculated with the resulting culture in such an amount that an absorbance at 550 nm of the inoculated medium could be about 0.15, followed by incubation under the same condition as above. Furthermore, the above-mentioned strains were incubated in the above-mentioned medium further containing 0.1 mM or 1.0 mM trifluoromethionine. Absorbance at 550 nm of the individual cultures was measured with time to evaluate propagation of bacteria through the turbidity of the medium. Results are shown in FIG. 1 to 4 (A to D), where the results of using the trifluoromethionine-free medium are shown by □ curve, and those of using media containing 0.1 mM and 1.0 mM trifluoromethionine, respectively, are shown by ▪ and ● curves.

[2] = test system: Porphyromonas gingivalis W83, ATCC33277 and M1217; assay: as above; details: medium containing 0.1 mM or 1.0 mM trifluoromethionine, FIGS. 1-3
Description: as §1

Escherichia coli BL 21 = assay: as above; details: medium containing 0.1 mM or 1.0 mM trifluoromethionine, FIG. 6
[3] = test system: Staphylococcus epidermidis ATCC12228; assay: MIC by agar plate dilution method on standard strains (Example 3)
Description: (§2) Minimum growth-inhibiting concentrations of trifluoromethionine and other antibacterial drugs on standard strains were determined by an agar plate dilution method according to the standard method of Japanese Society of Chemotherapy.
(§3) Drug solutions at a concentration 10 times as high as the maximum applicable concentration were prepared as original solutions of test drugs given in Table 2 (as to solvents used for this purpose, reference should be made also to Table 2). Serial two-fold dilution series of the original solutions were prepared at desired stages, and 1 ml each of the diluted drug solutions was added to 9 ml of media given in Table 3 to prepare drug plates. Concentration range of the individual drugs used are as follows: trifluoromethionine: 400-0.025 μg/ml (15 stages), tetracycline: 100-0.025 μg/ml (13 stages), and clarithromycin: 100-0.025 μg/ml (13 stages).
(§4) • 1) Bacterial solutions stocked at −80° C. were inoculated on agar media (as to media used, reference should be made to Table 3), and then incubated at 37° C. overnight. When desired, subculturing was conducted once more on the same agar media (by overnight incubation at 37° C.). • 2) Colonies growing on the agar media were sampled by a platinum loop, suspended in liquid media (reference should be made to Table 3) and statically incubated at 37° C. for 18 hours (preculturing). • 3) Preculturing was continued up to McFarland 0.5 (McFarland 0.5=about 10^8 CFU/ml), and then the culture broths were diluted with Muellar Hinton Broth to make 10^6 CFU/ml. 5 μl each of the diluted solutions were inoculated on the above-mentioned drug plates by an inoculator Microplanter.
(§5) Thus, bacterial solutions at about 10^8 CFU/ml can be easily prepared by use of McFarland 0.5. Bacterial solutions at such a turbidity are commercially available, but can be easily prepared. McFarland 0.5 can be obtained by adding 0.5 ml of an aqueous 0.048 mol/l barium chloride solution to 99.5 ml of 1% v/v (0.18 mol/l) sulfuric acid. • 4) The individual bacteria were incubated at 37° C. for 18-20 hours and then the growth was determined in the same manner as in Example 2 to obtain minimum growth-inhibiting concentrations.

[4] = test system: Staphylococcus epidermidis ATCC29886; assay: as above
Description: as §2, §3, §4, §5

[5] = test system: Escherichia coli ATCC35218; assay: as above
Description: as §4, with “Drug solutions at a concentration 10 times as high as the maximum applicable concentration were prepared as original solutions of test drugs given in Table 2 (as to solvents used for this purpose, reference should be made also to Table 2). Serial two-fold dilution series of the original solutions were prepared at desired stages, and 1 ml each of the diluted drug solutions was added to 9 ml of media given in Table 3 to prepare drug plates. […] • 1)” for “• 1)”, “inoculator Microplanter. […] Thus, bacterial solutions at about 10^8 CFU/ml can be easily prepared by use of McFarland 0.5. Bacterial solutions at such a turbidity are commercially available, but can be easily prepared.” for “inoculator Microplanter.”

[6] = test system: Haemophilus influenzae ATCC33533; assay: as above
Description: as §4, with “Drug solutions at a concentration 10 times as high as the maximum applicable concentration were prepared as original solutions of test drugs given in Table 2 (as to solvents used for this purpose, reference should be made also to Table 2). Serial two-fold dilution series of the original solutions were prepared at desired stages, and 1 ml each of the diluted drug solutions was added to 9 ml of media given in Table 3 to prepare drug plates. […] • 1)” for “• 1)”, “inoculator Microplanter. […] Thus, bacterial solutions at about 10^8 CFU/ml can be easily prepared by use of McFarland 0.5. Bacterial solutions at such a turbidity are commercially available, but can be easily prepared.” for “inoculator Microplanter.”

[7] = test system: Haemophilus influenzae ATCC49247; assay: as above
Description: as §4, with “Drug solutions at a concentration 10 times as high as the maximum applicable concentration were prepared as original solutions of test drugs given in Table 2 (as to solvents used for this purpose, reference should be made also to Table 2). Serial two-fold dilution series of the original solutions were prepared at desired stages, and 1 ml each of the diluted drug solutions was added to 9 ml of media given in Table 3 to prepare drug plates. […] • 1)” for “• 1)”, “inoculator Microplanter. […] Thus, bacterial solutions at about 10^8 CFU/ml can be easily prepared by use of McFarland 0.5. Bacterial solutions at such a turbidity are commercially available, but can be easily prepared.” for “inoculator Microplanter.”

[8] = test system: Micrococcus luteus ATCC9341; assay: as above
Description: as §4, with “Drug solutions at a concentration 10 times as high as the maximum applicable concentration were prepared as original solutions of test drugs given in Table 2 (as to solvents used for this purpose, reference should be made also to Table 2). Serial two-fold dilution series of the original solutions were prepared at desired stages, and 1 ml each of the diluted drug solutions was added to 9 ml of media given in Table 3 to prepare drug plates. […] • 1)” for “• 1)”, “inoculator Microplanter. […] Thus, bacterial solutions at about 10^8 CFU/ml can be easily prepared by use of McFarland 0.5. Bacterial solutions at such a turbidity are commercially available, but can be easily prepared.” for “inoculator Microplanter.”

[9] = test system: Moraxella (Branhamella) catarrhalis ATCC25238; assay: as above
Description: as §4, with “Drug solutions at a concentration 10 times as high as the maximum applicable concentration were prepared as original solutions of test drugs given in Table 2 (as to solvents used for this purpose, reference should be made also to Table 2). Serial two-fold dilution series of the original solutions were prepared at desired stages, and 1 ml each of the diluted drug solutions was added to 9 ml of media given in Table 3 to prepare drug plates. […] • 1)” for “• 1)”, “inoculator Microplanter. […] Thus, bacterial solutions at about 10^8 CFU/ml can be easily prepared by use of McFarland 0.5. Bacterial solutions at such a turbidity are commercially available, but can be easily prepared.” for “inoculator Microplanter.”

[10] = test system: Moraxella (Branhamella) catarrhalis ATCC25240; assay: as above
Description: as §4, with “Drug solutions at a concentration 10 times as high as the maximum applicable concentration were prepared as original solutions of test drugs given in Table 2 (as to solvents used for this purpose, reference should be made also to Table 2). Serial two-fold dilution series of the original solutions were prepared at desired stages, and 1 ml each of the diluted drug solutions was added to 9 ml of media given in Table 3 to prepare drug plates. […] • 1)” for “• 1)”, “inoculator Microplanter. […] Thus, bacterial solutions at about 10^8 CFU/ml can be easily prepared by use of McFarland 0.5. Bacterial solutions at such a turbidity are commercially available, but can be easily prepared.” for “inoculator Microplanter.”

[11] = test system: Pseudomonas aeruginosa ATCC27853; assay: as above
Description: as §4, with “Drug solutions at a concentration 10 times as high as the maximum applicable concentration were prepared as original solutions of test drugs given in Table 2 (as to solvents used for this purpose, reference should be made also to Table 2). Serial two-fold dilution series of the original solutions were prepared at desired stages, and 1 ml each of the diluted drug solutions was added to 9 ml of media given in Table 3 to prepare drug plates. […] • 1)” for “• 1)”, “inoculator Microplanter. […] Thus, bacterial solutions at about 10^8 CFU/ml can be easily prepared by use of McFarland 0.5. Bacterial solutions at such a turbidity are commercially available, but can be easily prepared.” for “inoculator Microplanter.”

[12] = test system: Serratia marcescens ATCC13880; assay: as above
Description: as §4, with “Drug solutions at a concentration 10 times as high as the maximum applicable concentration were prepared as original solutions of test drugs given in Table 2 (as to solvents used for this purpose, reference should be made also to Table 2). Serial two-fold dilution series of the original solutions were prepared at desired stages, and 1 ml each of the diluted drug solutions was added to 9 ml of media given in Table 3 to prepare drug plates. […] • 1)” for “• 1)”, “inoculator Microplanter. […] Thus, bacterial solutions at about 10^8 CFU/ml can be easily prepared by use of McFarland 0.5. Bacterial solutions at such a turbidity are commercially available, but can be easily prepared.” for “inoculator Microplanter.”

[13] = test system: Staphylococcus aureus ATCC6538P; assay: as above
Description: as §4, with “Drug solutions at a concentration 10 times as high as the maximum applicable concentration were prepared as original solutions of test drugs given in Table 2 (as to solvents used for this purpose, reference should be made also to Table 2). Serial two-fold dilution series of the original solutions were prepared at desired stages, and 1 ml each of the diluted drug solutions was added to 9 ml of media given in Table 3 to prepare drug plates. […] • 1)” for “• 1)”, “inoculator Microplanter. […] Thus, bacterial solutions at about 10^8 CFU/ml can be easily prepared by use of McFarland 0.5. Bacterial solutions at such a turbidity are commercially available, but can be easily prepared.” for “inoculator Microplanter.”

[14] = test system: Streptococcus pneumoniae ATCC49619; assay: as above
Description: as §4, with “Drug solutions at a concentration 10 times as high as the maximum applicable concentration were prepared as original solutions of test drugs given in Table 2 (as to solvents used for this purpose, reference should be made also to Table 2). Serial two-fold dilution series of the original solutions were prepared at desired stages, and 1 ml each of the diluted drug solutions was added to 9 ml of media given in Table 3 to prepare drug plates. […] • 1)” for “• 1)”, “inoculator Microplanter. […] Thus, bacterial solutions at about 10^8 CFU/ml can be easily prepared by use of McFarland 0.5. Bacterial solutions at such a turbidity are commercially available, but can be easily prepared.” for “inoculator Microplanter.”

[15] = test system: Streptococcus pneumoniae ATCC6302; assay: as above
Description: as §4, with “Drug solutions at a concentration 10 times as high as the maximum applicable concentration were prepared as original solutions of test drugs given in Table 2 (as to solvents used for this purpose, reference should be made also to Table 2). Serial two-fold dilution series of the original solutions were prepared at desired stages, and 1 ml each of the diluted drug solutions was added to 9 ml of media given in Table 3 to prepare drug plates. […] • 1)” for “• 1)”, “inoculator Microplanter. […] Thus, bacterial solutions at about 10^8 CFU/ml can be easily prepared by use of McFarland 0.5. Bacterial solutions at such a turbidity are commercially available, but can be easily prepared.” for “inoculator Microplanter.”

[16] = test system: Streptococcus pneumoniae ATCC6306; assay: as above
Description: as §4, with “Drug solutions at a concentration 10 times as high as the maximum applicable concentration were prepared as original solutions of test drugs given in Table 2 (as to solvents used for this purpose, reference should be made also to Table 2). Serial two-fold dilution series of the original solutions were prepared at desired stages, and 1 ml each of the diluted drug solutions was added to 9 ml of media given in Table 3 to prepare drug plates. […] • 1)” for “• 1)”, “inoculator Microplanter. […] Thus, bacterial solutions at about 10^8 CFU/ml can be easily prepared by use of McFarland 0.5. Bacterial solutions at such a turbidity are commercially available, but can be easily prepared.” for “inoculator Microplanter.”

In the case of `N[C@@H](CCSC(F)(F)F)C(=O)O` [TFM, Trifluoromethionine], the “antibacterial effect (propagation of bacteria, absorbance at 550 nm)” value (shortened to “antibacterial effect”) [1] is reported as “remarkable antibacterial effects”, the “antibacterial effect” value [2] is reported as “remarkable antibacterial effects” and the “antibacterial effect” value (Escherichia coli BL 21) is reported as “failed to show a significant antibacterial effect”. For the same compound, the MIC [3] was >400 µg/mL, the MIC [4] was >400 µg/mL and the MIC [5] was >400 µg/mL. For the same compound, the MIC [6] was 100 µg/mL (≈ 492 µM), the MIC [7] was 50 µg/mL (≈ 246 µM) and the MIC [8] was >400 µg/mL. The MIC [9] was 100 µg/mL (≈ 492 µM), the MIC [10] was 25 µg/mL (≈ 123 µM) and the MIC [11] was >400 µg/mL. The MIC [12] was >400 µg/mL, the MIC [13] was >400 µg/mL and the MIC [14] was >400 µg/mL. The MIC [15] was >400 µg/mL and the MIC [16] was >400 µg/mL.
